{
  "source": "patent US5981551A",
  "about": "“2,5-diimino-3a,6a-diaryl-1,2,3,3a,4,5,6,6a-octahydroim idazo[4,5-d]imidazoles which are effective as G-CSF mimetics” (SmithKline Beecham Corporation, priority 1998, dated 1999)",
  "target": "T1, G-CSF receptor (Mus musculus, UniProt P40223)",
  "T1 construct": "NSF60 cells express endogenous G-CSF receptors; endogenous in cells; host or cells: NFS60 cells",
  "T1 sequence (P40223 26-837)": "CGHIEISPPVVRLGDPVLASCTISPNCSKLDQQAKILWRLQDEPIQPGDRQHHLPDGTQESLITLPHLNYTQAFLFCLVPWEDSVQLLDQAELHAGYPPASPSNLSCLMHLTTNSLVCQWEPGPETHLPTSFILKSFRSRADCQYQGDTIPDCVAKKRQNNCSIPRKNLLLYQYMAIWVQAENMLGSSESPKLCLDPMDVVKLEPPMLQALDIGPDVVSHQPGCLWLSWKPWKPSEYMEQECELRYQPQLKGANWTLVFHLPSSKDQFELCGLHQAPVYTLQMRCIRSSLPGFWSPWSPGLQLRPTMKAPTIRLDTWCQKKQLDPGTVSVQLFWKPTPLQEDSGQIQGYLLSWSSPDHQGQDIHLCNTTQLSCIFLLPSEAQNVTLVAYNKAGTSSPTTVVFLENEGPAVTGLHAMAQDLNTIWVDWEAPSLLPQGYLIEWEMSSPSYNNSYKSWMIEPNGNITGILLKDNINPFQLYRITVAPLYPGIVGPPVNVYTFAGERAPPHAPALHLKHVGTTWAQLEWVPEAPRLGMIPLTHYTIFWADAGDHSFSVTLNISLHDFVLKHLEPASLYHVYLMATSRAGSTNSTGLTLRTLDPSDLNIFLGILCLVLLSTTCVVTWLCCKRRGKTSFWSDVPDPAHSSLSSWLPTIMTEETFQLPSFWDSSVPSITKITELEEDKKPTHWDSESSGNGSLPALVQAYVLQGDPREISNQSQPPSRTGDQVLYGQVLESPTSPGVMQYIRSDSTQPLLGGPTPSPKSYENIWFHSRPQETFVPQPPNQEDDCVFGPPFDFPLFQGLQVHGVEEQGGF",
  "assay": "Luciferase assay in NFS60 cells (G-CSF mimetic potency)",
  "format": "cell-based",
  "conditions": "concentration range of 1 to 32 uM",
  "from_the_text": "Luciferase Assay […] Natl. Acad. Sci., USA 92: 3041-3045 (1995) by substituting NFS60 cells for the HepG2 cells utilized therein. The NFS60 cells (Holmes, et al., Proc. Natl. Acad. Sci. USA 82: 6687-6691 (1985)) were substituted for the HepG2 cells in the Lamb assay because the NSF60 cells express endogenous G-CSF receptors closely matching the pattern of STAT (signal transducers and activators of transcription) activation observed in primary murine and human bone marrow cells.",
  "note": "Structures can show the parent of a compound that is named as a salt.",
  "data": [
    {"smiles": "c1ccc(C23NC(=Nc4nc5ccccc5[nH]4)NC2(c2ccccn2)NC(=Nc2nc4ccccc4[nH]2)N3)nc1", "note": "(stereo not drawn) [Example 1]", "values": [
      {"measurement": "activation, % of control, in the luciferase assay", "value": "above 150 % of control"}
    ]},
    {"smiles": "c1ccc(C23NC(=Nc4nc5ccccc5[nH]4)NC2(c2ccccc2)NC(=Nc2nc4ccccc4[nH]2)N3)cc1", "note": "(stereo not drawn) [Example 2]", "values": [
      {"measurement": "activation, % of control, in the luciferase assay", "value": "above 150 % of control"}
    ]},
    {"smiles": "c1coc(C23NC(=Nc4nc5ccccc5[nH]4)NC2(c2ccco2)NC(=Nc2nc4ccccc4[nH]2)N3)c1", "note": "(stereo not drawn) [Example 3, 2,5-bis[2-benzimidazolylimino]-3a,6a-bis(2-furyl)-1,2,3,3a,4,5,6,6a-bis(2-pyridyl)octahydroimidazo[4.5-d]imidazole]", "values": [
      {"measurement": "activation, % of control, in the luciferase assay", "value": "≤ 150 % of control"}
    ]},
    {"smiles": "Cc1csc(N=C2NC3(c4ccccn4)NC(=Nc4nc(C)cs4)NC3(c3ccccn3)N2)n1", "note": "(stereo not drawn) [Example 13, 2,5-bis[(4-methyl-2-thiazolyl)imino]-3a,6a-bis(2-pyridyl)-1,2,3,3a,4,5,6a-octahydroimidazo[4,5-d]imidazole]", "values": [
      {"measurement": "activation, % of control, in the luciferase assay", "value": "above 150 % of control"}
    ]},
    {"smiles": "c1ccc(C23NC(=Nc4nc5ccccc5o4)NC2(c2ccccn2)NC(=Nc2nc4ccccc4o2)N3)nc1", "note": "(stereo not drawn) [Example 14, 2,5-bis[2-benzoxazolylimino]-3a,6a-bis(2-pyridyl)-1,2,3a,4,5,6,6a-octahydroimidazo[4,5-d]imidazole]", "values": [
      {"measurement": "activation, % of control, in the luciferase assay", "value": "≤ 150 % of control"}
    ]},
    {"smiles": "Fc1ccc2nc(N=C3NC4(c5ccccn5)NC(=Nc5nc6ccccc6[nH]5)NC4(c4ccccn4)N3)[nH]c2c1.O=C(O)C(F)(F)F.O=C(O)C(F)(F)F", "note": "(stereo not drawn) [Example 19, 5-(2-benzimidazolylimino)-2-[(5-fluoro-2-benzimidazolyl)imino]-3a,6a-bis(2-pyridyl)-1,2,3,3a,4,5,6,6a-octahydroimidazo[4,5-d]imidazole bis(trifluoroacetate) salt]", "values": [
      {"measurement": "activation, % of control, in the luciferase assay", "value": "≤ 150 % of control"}
    ]},
    {"smiles": "Fc1ccc2nc(N=C3NC4(c5ccccn5)NC(=Nc5nc6ccc(F)cc6[nH]5)NC4(c4ccccn4)N3)[nH]c2c1", "note": "(stereo not drawn) [Example 20, 2,5-bis[(5-fluoro-2-benzimidazolyl)imino]-3a,6a-bis(2-pyridyl-1,2,3,3a4,5,6,6a-octahydroimidazo[4,5-d]imidazolebis(trifluoroacetate) salt]", "values": [
      {"measurement": "activation, % of control, in the luciferase assay", "value": "above 150 % of control"}
    ]},
    {"smiles": "Cc1cc2nc(N=C3NC4(c5ccccn5)NC(=Nc5nc6cc(C)c(C)cc6[nH]5)NC4(c4ccccn4)N3)[nH]c2cc1C", "note": "(stereo not drawn) [Example 25, 2,5-bis[(5.6-dimethyl-2-benzimidazolyl)imino]-3a,6a-bis(2-pyridyl)-1,2,2a,4,5,6,6a-octahydroimidazo[4,5-d]imidazole bis(trifluoroacetate) salt]", "values": [
      {"measurement": "activation, % of control, in the luciferase assay", "value": "above 150 % of control"}
    ]},
    {"smiles": "Cc1cc2nc(N=C3NC4(c5ccccn5)NC(=Nc5nc6ccccc6[nH]5)NC4(c4ccccn4)N3)[nH]c2cc1C", "note": "(stereo not drawn) [Example 26, 5-[2-benzimidazolylimino]-2-[(5,6-dimethyl-2-benzimidazolyl)imino]-3a,6a-bis(2-pyridyl)-1,2,2a,4,5,6,6a-octahydroimidazo[4,5-d]imidazole bis(trifluoroacetate) salt]", "values": [
      {"measurement": "activation, % of control, in the luciferase assay", "value": "above 150 % of control"}
    ]},
    {"smiles": "c1ccc(C23NC(=Nc4nc5ccccc5[nH]4)NC2(c2ccccn2)NC(=Nc2nc4ccccc4s2)N3)nc1", "note": "(stereo not drawn) [Example 30, 5-[2-benzimidazolylimino]-2-[2-benzothiazolylimino]-3a,6a-bis(2-pyridyl)-1,2,3a,4,5,6,6a-octahydroimidazo[4,5-d]imidazole bis(trifluoroacetate)]", "values": [
      {"measurement": "activation, % of control, in the luciferase assay", "value": "above 150 % of control"}
    ]},
    {"smiles": "O=C(O)c1ccc2nc(N=C3NC4(c5ccccn5)NC(=Nc5nc6ccccc6[nH]5)NC4(c4ccccn4)N3)[nH]c2c1", "note": "(stereo not drawn) [Example 31, 5-[(2-benzimidazolylimino]1-2-[(5-carboxy-2-benzimidazolyl)imino]-3a,6a-bis(2-pyridyl)-1,2,3,3a,4,5,6,6a-octahydroimidazo[4,5-d]imidazolebis(trifluoroacetate) salt]", "values": [
      {"measurement": "activation, % of control, in the luciferase assay", "value": "≤ 150 % of control"}
    ]},
    {"smiles": "Ic1ccc2nc(N=C3NC4(c5ccccn5)NC(=Nc5nc6ccc(I)cc6[nH]5)NC4(c4ccccn4)N3)[nH]c2c1.O=C(O)C(F)(F)F.O=C(O)C(F)(F)F", "note": "(stereo not drawn) [Example 32a, 2,5-bis[(5-iodo-2-benzimidazolyl)imino]-3a,6a-bis(2-pyridyl)-1,2,3,3a,4,5,6,6a-octahydroimidazo[4,5-d]imidazole bis(trifluoroacetate) salt]", "values": [
      {"measurement": "activation, % of control, in the luciferase assay", "value": "≤ 150 % of control"}
    ]},
    {"smiles": "Ic1ccc2nc(N=C3NC4(c5ccccn5)NC(=Nc5nc6ccccc6[nH]5)NC4(c4ccccn4)N3)[nH]c2c1", "note": "(stereo not drawn) [Example 32b, 5-[2-benzimidazolylimino]-2-[(5-iodo-2-benzimidazolyl)imino]-3a,6a-bis(2-pyridyl)-1,2,2a,4,5,6,6a-octahydroimidazo[4,5-d]imidazole bis(trifluoroacetate) salt]", "values": [
      {"measurement": "activation, % of control, in the luciferase assay", "value": "above 150 % of control"}
    ]},
    {"smiles": "Brc1ccc(C23NC(=Nc4nc5ccccc5[nH]4)NC2(c2ccc(Br)cc2)NC(=Nc2nc4ccccc4[nH]2)N3)cc1", "note": "(stereo not drawn) [Example 33, 2,5-bis[2-benzimidazolylimino]-3a,6a-bis(4-bromophenyl)-1,2,3,3a,4,5,6,6a-octahydroimidazo[4,5-d]imidazole]", "values": [
      {"measurement": "activation, % of control, in the luciferase assay", "value": "≤ 150 % of control"}
    ]},
    {"smiles": "FC(F)(F)c1ccc(C23NC(=Nc4nc5ccccc5[nH]4)NC2(c2ccc(C(F)(F)F)cc2)NC(=Nc2nc4ccccc4[nH]2)N3)cc1", "note": "(stereo not drawn) [Example 34, 2,5-bis[2-benzimidazolylimino]-3a,6a-bis(4-trifluoromethylphenyl)-1,2,3,3a,4,5,6,6a-octahydroimidazo[4,5-d]imidazole]", "values": [
      {"measurement": "activation, % of control, in the luciferase assay", "value": "above 150 % of control"}
    ]},
    {"smiles": "Clc1cccc(C23NC(=Nc4nc5ccccc5[nH]4)NC2(c2ccccc2)NC(=Nc2nc4ccccc4[nH]2)N3)c1", "note": "(stereo not drawn) [Example 35, 2,5-bis[2-benzimidazolylimino]-3a-(3-chlorophenyl)-6a-phenyl-1,2,3,3a,4,5,6,6a-octahydroimidazo[4,5-d]imidazole]", "values": [
      {"measurement": "activation, % of control, in the luciferase assay", "value": "above 150 % of control"}
    ]},
    {"smiles": "Clc1ccccc1C12NC(=Nc3nc4ccccc4[nH]3)NC1(c1ccccc1)NC(=Nc1nc3ccccc3[nH]1)N2", "note": "(stereo not drawn) [Example 36, 2,5-bis[2-benzimidazolylimino]-3a-(2-chlorophenyl)-6a-phenyl-1,2,3,3a,4,5,6,6a-octahydroimidazo[4,5-d]imidazole]", "values": [
      {"measurement": "activation, % of control, in the luciferase assay", "value": "≤ 150 % of control"}
    ]},
    {"smiles": "Cc1ccc2nc(N=C3NC4(c5ccccc5)NC(=Nc5nc6ccccc6[nH]5)NC4(c4ccccn4)N3)[nH]c2c1.O=C(O)C(F)(F)F.O=C(O)C(F)(F)F", "note": "(stereo not drawn) [Example 37, 5-(2-benzimidazolylimino)-2-[(5-methyl-2-benzimidazolyl)imino]-3a-(2-pyridyl)-6a-phenyl-1,2,3,3a,4,5,6,6a-octahydroimidazo[4,5-d]imidazole bis(trifluoroacetate) salt]", "values": [
      {"measurement": "activation, % of control, in the luciferase assay", "value": "above 150 % of control"}
    ]},
    {"smiles": "Cn1c(N=C2NC3(c4ccccc4)NC(=Nc4nc5ccccc5n4C)NC3(c3ccccc3)N2)nc2ccccc21", "note": "(stereo not drawn) [Example 38, 2,5-bis[(1-methyl-2-benzimidazolyl)imino]-3a,6a-diphenyl-1,2,3,3a,4,5,6,6a-octahydromidazo[4,5-d]imidazole]", "values": [
      {"measurement": "activation, % of control, in the luciferase assay", "value": "≤ 150 % of control"}
    ]},
    {"smiles": "Cc1ccc(C23NC(=Nc4nc5ccccc5n4C)NC2(c2ccc(C)cc2)NC(=Nc2nc4ccccc4n2C)N3)cc1", "note": "(stereo not drawn) [Example 39, 2,5-bis[(1-methyl-2-benzimidazolyl)imino]-3a,6a-bis(4-methylphenyl)-1,2,3,3a,4,5,6,6a-octahydromidazo[4,5-d]imidazole]", "values": [
      {"measurement": "activation, % of control, in the luciferase assay", "value": "above 150 % of control"}
    ]},
    {"smiles": "Cn1c(N=C2NC3(c4ccc(Br)cc4)NC(=Nc4nc5ccccc5n4C)NC3(c3ccc(Br)cc3)N2)nc2ccccc21", "note": "(stereo not drawn) [Example 40, 2,5-bis[(1-methyl-2-benzimidazolyl)imino]-3a,6a-bis(4-bromophenyl)-1,2,3,3a,4,5,6,6a-octahydromidazo[4,5-d]imidazole]", "values": [
      {"measurement": "activation, % of control, in the luciferase assay", "value": "≤ 150 % of control"}
    ]}
  ]
}
